From PubChem BioAssay (NCI) come the findings set out here.

Some test systems named below: KM20L2 colon; M19-MEL melanoma; SNB-78 CNS; XF 498 CNS; DMS 114 small cell lung; HOP-18 NSCLC; RXF-631 renal.
Common to all, as to assay: NCI anticancer screen, dose series, 48 h

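Cells were grown in 96-well plates and exposed to each compound for 48 hours at five concentrations; endpoints were interpolated linearly between bracketing concentrations, or set to the highest concentration if not reached. At the GI50, growth is halved. TGI marks complete inhibition of growth.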 Bounds are passed on as bounds.

`CCC(CC)NC1=C(NC(C)=O)C(=O)c2ccccc2C1=O`: the TGI in the assay with KM20L2 colon, in the assay with M19-MEL melanoma, in the assay on SNB-78 CNS and with XF 498 CNS was above 50 µM throughout.
Turning to `O=S(Cc1ccccc1)c1nc2ccccc2nc1-c1cccs1` (stereo not given), the TGI with DMS 114 small cell lung was 5.91 µM; in the assay with HOP-18 NSCLC, 29.5 µM; in the assay with M19-MEL melanoma, 22.6 µM; with SNB-78 CNS it was 56.2 µM; in the assay with XF 498 CNS, 12.3 µM.
On to `Cc1n(CC(C)C)c2c([n+]1C)C(=O)c1ccccc1C2=O`, for which the TGI is below 0.0255 µM in the assay with DMS 114 small cell lung; 3.63 µM in the assay with HOP-18 NSCLC; 1.6 µM in the assay with KM20L2 colon; 0.216 µM with M19-MEL melanoma; 3.48 µM in the assay with SNB-78 CNS; 1.46 µM in the assay on XF 498 CNS.
Consider `N#C[S-].[La+3].c1cnc2c(c1)ccc1cccnc12.c1cnc2c(c1)ccc1cccnc12.c1cnc2c(c1)ccc1cccnc12`, for which the GI50 is 1.58 µM in the assay with DMS 114 small cell lung; 0.952 µM in the assay on HOP-18 NSCLC; 0.986 µM in the assay on KM20L2 colon; 0.688 µM in the assay with M19-MEL melanoma; 4.03 µM with XF 498 CNS. The TGI was found to be 5.45 µM with DMS 114 small cell lung; 9.46 µM with HOP-18 NSCLC; 16.4 µM in the assay with KM20L2 colon; 3.69 µM in the assay on M19-MEL melanoma; 9.42 µM with XF 498 CNS.
On to `CN(C)/C=C/C(=CC=[N+](C)C)/C=C/N(C)C`, for which the TGI with RXF-631 renal, in the assay on SNB-78 CNS and with XF 498 CNS was above 100 µM each time.
Take `CC1(C)OCN(c2ccc(N3CCOCC3)cc2)Cn2c1nc1ccccc12`: the TGI in the assay with DMS 114 small cell lung, with HOP-18 NSCLC, in the assay with KM20L2 colon, in the assay with M19-MEL melanoma and in the assay with SNB-78 CNS was above 100 µM in each case.
Regarding `COc1cc(C=O)c(-c2c(C=O)ccc3c2OCO3)c(OC)c1OC`, the TGI in the assay on DMS 114 small cell lung, in the assay on HOP-18 NSCLC, in the assay on KM20L2 colon, in the assay with M19-MEL melanoma, with RXF-631 renal and in the assay on SNB-78 CNS was above 100 µM each time.
As for `Cc1ccc2c(ccc(/C=C/c3ccc(O)c4ncccc34)[n+]2C)c1`, the TGI in the assay with DMS 114 small cell lung worked out at 4.28 µM; in the assay with HOP-18 NSCLC, 26.4 µM; in the assay with KM20L2 colon, 20.1 µM; in the assay with M19-MEL melanoma, 22.6 µM; in the assay on SNB-78 CNS, 27.5 µM; in the assay on XF 498 CNS, 16.8 µM.
Consider `CCOC1C(Br)Cn2c(=O)c3cc4ccccc4cc3c(=O)n2C1C` (stereo not given), for which the TGI in the assay on DMS 114 small cell lung, with KM20L2 colon, in the assay on M19-MEL melanoma, with SNB-78 CNS and in the assay on XF 498 CNS was above 100 µM each time.
